US11571458B2, “Bacteriocins to improve vaginal colonization of hydrogen peroxide producing lactobacillus for female reproductive health” (Osel, Inc., priority 2018, dated 2023)

B1: KNWSVAKCGGTIGTNIAIGAWRGARAGSFFGQPVSVGTGALIGASAGAIGGSVQCVGWLAGGGR (protein, listed as Lactobacillus paragasseri)
chain: KNWSVAKCGGTIGTNIAIGAWRGARAGSFFGQPVSVGTGALIGASAGAIGGSVQCVGWLAGGGR
notes: α peptide of two-component bacteriocin gassericin K7A from L. paragasseri K7

Experiments:
G. vaginalis HM-133 = assay: combined use of K7 bacteriocins and metronidazole, OD 600 nm; format: cell-based, Gardnerella vaginalis; details: 48 hours; K7 bacteriocin 80 BU/mL, metronidazole 42 μg/mL
Description: (§1) The effectiveness of the combined use of the K7 bacteriocins and metronidazole was tested against L. iners and G. vaginalis in vitro. Cultures of L. iners HM-702 and G. vaginalis HM-133, L. iners+G. vaginalis co-cultures, and L. crispatus SJ-3C were obtained as described previously in Example 1. Overnight cultures of L. iners, G. vaginalis, and L. crispatus were diluted in fresh growth media to concentrations of approximately 10^5 CFU/mL to be tested against K7 bacteriocin (from Example 1), metronidazole (Sigma-Aldrich, USA), and K7 bacteriocin+metronidazole (combined). To each culture of L. iners, G. vaginalis, the L. iners+G. vaginalis co-culture, and L. crispatus was added semi-purified K7 bacteriocin (80 BU/mL, quantified using L. iners as indicator), metronidazole (42 μg/mL), or the K7 bacteriocin+metronidazole combination, and incubated anaerobically at 37° C. for 48 hours. As controls, L. iners, G. vaginalis, the L. iners+G. vaginalis, and L. crispatus were incubated alone with conditioned media for 48 hours as well.

L. crispatus SJ-3C = assay: as above; format: cell-based, Lactobacillus crispatus; details: 48 hours; K7 bacteriocin 80 BU/mL, metronidazole 42 μg/mL
Description: as §1

L. iners HM-702 = assay: as above; format: cell-based, Lactobacillus iners; details: 48 hours; K7 bacteriocin 80 BU/mL, metronidazole 42 μg/mL
Description: as §1

Lactobacillus iners = assay: critical dilution assay (bacteriocin activity / MIC); format: cell-based; details: for L. iners HM-702 MIC: ratio of peptides about 1:1 (w/w); for anti-L. iners activity of purified chromatography fraction: reverse phase fractions identified by MALDI-TOF; for L. iners HM-702 MIC / MIC against L. iners: L. iners HM-702; for MIC against L. iners: molar value given in brackets
[1] = system: Lactobacillus sakei subsp. sakei ATCC 15521; assay: as above; format: cell-based; details: ratio of peptides about 1:1 (w/w)

| Molecule | sensitivity of G. vaginalis (OD 600 nm) (G. vaginalis HM-133) | inhibition of L. crispatus SJ-3C (OD 600 nm) (L. crispatus SJ-3C) | sensitivity of L. iners (OD 600 nm) (L. iners HM-702) | L. iners HM-702 MIC (Lactobacillus iners; critical dilution assay) [µg/mL] | anti-L. iners activity of purified chromatography fraction (Lactobacillus iners) | L. sakei subsp. sakei ATCC 15521 MIC [1] [µg/mL] | MIC against L. iners (Lactobacillus iners) [nM] | activity of peptide expressed as MBP fusion in E. coli (Lactobacillus iners; critical dilution assay, data not shown) |
| --- | --- | --- | --- | --- | --- | --- | --- | --- |
| Cc1ncc([N+](=O)[O-])n1CCO [metronidazole] | sensitive | not significantly inhibited | not sensitive | – | – | – | – | – |
| NKWGNAVIGAATGATRGVSWCRGFGPWGMTACGLGGAAIGGYLGYKSN (listed as Lactobacillus paragasseri) [GasK7B β, β peptide of two-component bacteriocin gassericin K7B from L. paragasseri K7] | – | – | – | >0.1 | minor peak of activity | 0.025 | – | – |
| NNVNWGSVAGSCGKGAVMEIYFGNPILGCANGAATSLVLQTASGIYKNYQKKR (listed as Lactobacillus paragasseri) [GasK7A β, β peptide of two-component bacteriocin gassericin K7A] | – | – | – | >4 | – | >4 | – | – |
| RNNWAANIGGAGGATVAGWALGNAVCGPACGFVGAHYVPIAWAGVTAATGGFGKIRK (listed as Lactobacillus paragasseri) [GasK7B α, α peptide of two-component bacteriocin gassericin K7B from L. paragasseri K7] | – | – | – | 0.025 | greatest anti-L. iners activity | 0.0016 | 5 | comparable to the peptide isolated from K7 |
| B1 | – | – | – | 0.075 | – | 0.0094 | 12 | – |
